From patent publication US20240317746A1, “CRYSTALLINE FORMS OF AN AZETIDINE PARP1 INHIBITOR” (XinThera, Inc., priority 2023, published 2024)
Converted amounts (≈) assume the structure as drawn. Read-outs that look alike come from different tables or passages of the source.

Tests used:
[1] = Polymorph screening (slurry conversion, cooling, evaporation, anti-solvent, cyclic heating-cooling, salt break); details: about 20 mg in 1 mL
Protocol: Form I was obtained from most polymorph screening experiments. […]
Cyclic heating-cooling experiments were carried out in Crystal 16 Parallel Crystallizer. About 20 mg of Compound 1 (starting material) was added into 1 mL solvents, and a heating-cooling program was performed: • 1. Equilibrated first at 20° C., and heated to 75 or 100° C. at 0.2° C./min (the elevated temperature is set according to boiling point of solvent). • 2. Held at 75 or 100° C. for 1 h. • 3. Cooled to 20° C. at 0.2° C./min and hold for 1 h. • 4. Repeated the above procedures once.
Turbidimeter from Crystal 16 recorded if solids were completely dissolved during heating. Form I was obtained in most solvent systems. […]

[2] = Preliminary solubility test: estimated solubility at RT by visual observation; format: physicochemical
Protocol: The solubility of Compound 1 (starting material) was estimated at RT in 18 single solvents and 6 solvent mixtures by visual observation. Approximately 5 mg solids were weighed into 8 mL glass vial, and then solvent was added stepwise until solids were dissolved completely or a total of solvent volume reached 5 mL. […] The solubility was estimated and for reference only.

[3] = Stability relationship study (slurry turnover of Form II); format: physicochemical
Protocol: Form II was prepared via heating starting material to 220° C. in DSC pans. Then, about 15 mg of Form II was stirred in 0.5 mL of selected solvent at desired temperatures for 2 and 5 days. Solid samples were collected by filtration and characterized by XRPD.

Row | SMILES | Hot Dissolution ([1]; 2-MeTHF, 75° C.) | Hot Dissolution ([1]; ACN/Water (9/1), 75° C.) | Hot Dissolution ([1]; DMAc/Toluene (1/2), 100° C.) | Hot Dissolution ([1]; EtOH, 75° C.) | Hot Dissolution ([1]; MEK, 75° C.) | Hot Dissolution ([1]; MIBK, 100° C.) | Hot Dissolution ([1]; n-Butanol/Anisole (1/1), 100° C.) | solubility ([2]; DCM/MeOH (1/1), organic solvent or mixture, thermodynamic from solid, DCM/MeOH (1/1), read-out: Solubility) | solubility ([2]; DCM/MeOH (4/1), listed as Compound 1 (starting material)) | solubility ([2]; DMSO, DMF, DMAc (each), organic solvent or mixture, thermodynamic from solid, DMSO, DMF, DMAc, read-out: Solubility) | solubility ([2]; organic solvent or mixture, thermodynamic from solid, Acetone/Water (9/1), ACN/Water (9/1), MeOH/Water (9/1), Acetone/EtOH (1/1), THF, MeOH, read-out: Solubility) | solubility ([2]; water, thermodynamic from solid, EtOH, IPA, Acetone, EtOAc, ACN, Water, DCM, 2-MeTHF, Toluene, MTBE, MEK, Heptane, read-out: Solubility) | Slurry turnover output (XRPD) Day 2 ([3]; ACN, 80° C.) | Slurry turnover output (XRPD) Day 5 ([3]; ACN, 80° C.) | Slurry turnover output (XRPD) Day 2 ([3]; Acetone, 50° C.) | Slurry turnover output (XRPD) Day 2 ([3]; Acetone, RT) | form after slurry in selected solvents (XRPD) ([3]; stirred at desired temperatures (RT to 80° C.) for 2 and 5 days)
1 | C[C@@H]1[C@@H](Oc2ccc(C(=O)NC3CC3)nc2)CN1Cc1cnc2cc(Cl)c(=O)[nH]c2c1 [Compound 1, 5-(((2R,3S)-1-((7-chloro-6-oxo-5,6-dihydro-1,5-naphthyridin-3-yl)methyl)-2-methylazetidin-3-yl)oxy)-N-cyclopropylpicolinamide] | Yes | No | Yes | Yes | No | No | Yes | 5000 to 20000 µg/mL (≈ 11.4 to 45.5 mM) | 50~100 mg/mL | 20000 to 50000 µg/mL (≈ 45.5 to 114 mM) | 1000 to 5000 µg/mL (≈ 2.27 to 11.4 mM) | < 1000 µg/mL |  |  |  |  | 
2 | C[C@@H]1[C@@H](Oc2ccc(C(=O)NC3CC3)nc2)CN1Cc1cnc2cc(Cl)c(=O)[nH]c2c1 [Freebase Form II, 5-(((2R,3S)-1-((7-chloro-6-oxo-5,6-dihydro-1,5-naphthyridin-3-yl)methyl)-2-methylazetidin-3-yl)oxy)-N-cyclopropylpicolinamide] |  |  |  |  |  |  |  |  |  |  |  |  | Form I + II | Form I | Form I | Form I | converted to Form I at all conditions
